Patent US20180161292A1, “NUTRITIONAL COMPOSITIONS CONTAINING BUTYRATE AND USES THEREOF” (Mead Johnson Nutrition Company, priority 2016, published 2018)

Tested on: oligodendrocyte precursor cells (OPCs)
Assay: OPC differentiation into mature oligodendric cells (MBP / PDGFRa immunostaining)
Assay type: cell-based, rat
Experimental: The OPCs were purified from P7 rat brain cortices. Rodent brain cortices were diced and dissociated with papain at 37° C. After trituration, […] were resuspended in a panning buffer and incubated at room temperature sequentially on the three immunopanning dishes: Ran-2 and GaIC were used for negative selection before positive selection with 04. OPCs were released from the panning dish using 0.05% Trypsin. OPCs were seeded onto PPL-coated coverslips at 200,000 per 25 mm circle coverslip in a chemically defined culture medium with PDGFa overnight.
Sodium Butyrate (NaB) was dissolved in sterile water and added into culture medium the next day to reach desire concentration. OPC coverslips were placed into 6-well dishes, 1 ml of NaB-containing culture medium without PDGFa was added to each well. Cells were cultured for 48 hours before fixation and immunostaining. PDGFRa antibody identifies OPCs and MBP (myelin basic protein) antibody labels differentiated oligodendrocytes. Percentage of MBP-positive cells out of all PDGFRa- and MBP-positives cells were quantified.
Examining a dose response for sodium butyrate on purified oligodendroglial cultures. Sodium butyrate was added to purified oligodendroglial cultures and cells were analyzed after 48 hours of treatment for effects on survival, proliferation and differentiation. Oligodendrocyte precursor cells were immunostained with PDGFRa shown in green, oligodendrocytes were immunostained with MBP in red, cell nuclei were labeled with DAPI in blue. Percentage of MBP-positive oligodendrocytes among all oligodendroglial cells was quantified at various concentrations of sodium butyrate. The asterisks represent significance based on Students t-test with the respective controls (*p<0.05, **p<0.01)

**Q.** Which “number of oligodendric cells from OPC compared to the control (MBP immunohistochemistry)” value (250 μM sodium butyrate, FIG. 7) does the source give for CCCC(=O)[O-].[Na+] [sodium butyrate] here?
**A.** statistically significant increase

**Q.** What about the “fold increase in the numbers of differentiated and matured oligodendric cells as compared to the control” value (250 μM sodium butyrate, purified OPCs from P7 rat brain cortices, 48 hours, FIG. 1) of the same molecule?
**A.** 2.6 fold

**Q.** And the “effect to promote OPC to differentiate into mature oligodendric cells” value (dose response 50 nM to 250 μM, 48 hours, FIG. 1)?
**A.** dose-dependent manner

**Q.** What about the “increase in Oligo cells as compared to the control” value (each of the concentrations of sodium butyrate (50 nM, 500 nM, 5 μM, 50 μM, 250 μM), 48 hours, Student's t-test, FIG. 1) of the same molecule?
**A.** statistically significant increase
